Target: T1, angiotensin II receptor (rat liver membranes) (Rattus norvegicus, UniProt P25095)
T1 construct: rat liver membranes; from tissue; host or cells: rat liver membranes
T1 sequence (P25095 1-359): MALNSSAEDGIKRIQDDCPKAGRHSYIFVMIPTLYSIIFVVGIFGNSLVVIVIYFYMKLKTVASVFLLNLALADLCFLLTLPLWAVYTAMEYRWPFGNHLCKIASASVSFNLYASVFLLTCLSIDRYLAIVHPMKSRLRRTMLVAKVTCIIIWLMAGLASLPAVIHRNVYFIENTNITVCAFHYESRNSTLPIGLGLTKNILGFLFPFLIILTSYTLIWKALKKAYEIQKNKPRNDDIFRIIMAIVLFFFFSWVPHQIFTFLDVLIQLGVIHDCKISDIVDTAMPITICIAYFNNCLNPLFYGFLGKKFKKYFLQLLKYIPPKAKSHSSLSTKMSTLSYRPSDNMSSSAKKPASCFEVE
Assay: Receptor Binding of Angiotensin II (RBAT): inhibition of tritiated angiotensin II binding to rat liver membranes
Details: in vitro, read-out: RBAT IC50 (concentration required to displace 50% of the specifically bound tritiated angiotensin II)
Protocol: The effectiveness of the compounds of the instant invention is determined by a test (RBAT) entitled Receptor Binding of Angiotensin II. In this in vitro test the inhibition of tritiated angiotensin II binding to rat liver membranes is measured.
*The IC50 is a concentration required to displace 50% of the specifi
bound tritiated angiotensin II.

IC50 | Structure (SMILES)
10 µM | CCCCc1nc(Cl)c(CO)n1Cc1ccc(NC(=O)C(NC(=O)OCc2ccccc2)C(=O)O)cc1 (racemic) [Example 13, (RS)-3-[[4-[[2-Butyl-4-chloro-5-(hydroxymethyl)-1H-imidazol-1-yl-methyl]phenyl]amino]-3-oxo-2[(phenyl-methoxy)-carbonyl]amino]-propanoic acid]
> 10 µM | CCCCc1nc(Cl)c(CO)n1Cc1ccc(NC(=O)N2CCC[C@H]2C(=O)OC)cc1 [Example 18, 1-[[4-[[2-Butyl-4-chloro-5-(hydroxymethyl)-1H-imidazol-1-yl]methyl]phenyl]amino]carbonyl-2-pyrrolidinecarboxylic acid, methyl ester]
> 10 µM | CCSc1nnc(CO)n1Cc1ccc(NC(=O)[C@H](CC(=O)O)NC(=O)OCc2ccccc2)cc1 [Example 9]
4.5 µM | CCCCc1ncc(CO)n1Cc1ccc(NC(=O)[C@H](Cc2ccc(O)cc2)NC(=O)OC(C)(C)C)cc1 [Example 6, (S)-[2-[[4-[[2-butyl-5-(hydroxymethyl)-1H-imidazol-1-yl]methyl]phenyl]amino]-1-[(4-hydroxyphenyl)methyl]-2-oxoethyl]-carbamic acid, 1,1-dimethylethylester]
6 µM | CCCCc1nc(Cl)c(CO)n1Cc1ccc(NC(=O)C(NC(=O)OC(C)(C)C)C(=O)O)cc1 (racemic) [Example 11]
3 µM | CCCCc1nc(Cl)c(CO)n1Cc1ccc(NC(=O)[C@H](CC#N)NC(=O)OCc2ccccc2)cc1 [Example 5, (S)-[2-[[4-[[2-Butyl-4-chloro-5-(hydroxymethyl)-1H-imidazol-1-yl]methyl]phenyl]amino]-1-(cyanomethyl)-2-oxoethyl]-carbamic acid, phenylmethyl ester]
4 µM | CCCCc1nc(Cl)c(CO)n1Cc1ccc(NC(=O)[C@H](CC(=O)OC(C)(C)C)NC(=O)OCc2ccccc2)cc1 [Example 7]
2.5 µM | CCCCc1nc(Cl)c(CO)n1Cc1ccc(NC(=O)[C@H](Cc2ccccc2)NS(=O)(=O)N2CCOCC2)cc1 [Example 16]
3.6 µM | CCCCc1nc(Cl)c(CO)n1Cc1ccc(NC(=O)[C@H](Cc2ccccc2)NS(=O)(=O)c2ccccc2)cc1 [Example 17]
3 µM | CCCCc1nc(Cl)c(CO)n1Cc1ccc(NC(=O)[C@H](Cc2ccc(O)cc2)NC(=O)OC(C)(C)C)cc1 [6 (4-Chloro), (S)-[2-[[4-[[2-Butyl-4-chloro-5-(hydroxymethyl)-1H-imidazol-1-yl]methyl]phenyl]amino]-1-[(4-hydroxyphenyl)methyl]-2-oxoethyl]-carbamic acid, 1,1-dimethylethyl ester]
